From patent publication US20170151219A1, “ANTIPERSPIRANT AGENT” (OSAKA UNIVERSITY, priority 2014, published 2017)

Key:
[1] = tested on: human; test: Observation of skin symptom after oral administration of mTOR inhibitor; assay type: in vivo; conditions: orally 10 mg per day, FIG. 3
Procedure: An influence on a skin exerted by a mTOR inhibitor was observed.
Specifically, a mTOR inhibitor (everolimus (Afinitor (Registered Trademark)) was orally administered to a human by 10 mg per day, and a symptom appeared on the skin was observed.
Specifically, (a) of FIG. 3 is a photograph showing a state of the skin before the mTOR inhibitor is administered, and (b) of FIG. 3 is a photograph showing a state of the skin after the mTOR inhibitor is administered.

[2] = tested on: patient of renal angiomyolipoma in consequence of tuberous sclerosis; test: Amount of sweating measured with local perspiration meter during and after oral mTOR inhibitor; assay type: in vivo, human; conditions: FIG. 4
Procedure: To a patient of renal angiomyolipoma in consequence of tuberous sclerosis, the mTOR inhibitor (everolimus (Afinitor (Registered Trademark))) was orally administered by 10 mg per day for approximately four months, and then the oral administration of the mTOR inhibitor was withdrawn.
During the period, after the oral administration of the mTOR inhibitor was started, an amount of sweating on a normal skin of the patient was measured with time and an amount of sweating on a skin of the patient on which a symptom of vitiligo appeared was measured with time.
The amount of sweating was measured with use of a local perspiration meter (quantitative axon reflex sweat amount measuring device) manufactured by Skinos Giken, and a specific measuring method was in conformity to a protocol attached to the device.

[3] = orally 10 mg per day for approximately four months

With `CO[C@H]1C[C@@H]2CC[C@@H](C)[C@@](O)(O2)C(=O)C(=O)N2CCCC[C@H]2C(=O)O[C@H]([C@H](C)C[C@@H]2CC[C@@H](OCCO)[C@H](OC)C2)CC(=O)[C@H](C)/C=C(\C)[C@@H](O)[C@@H](OC)C(=O)[C@H](C)C[C@H](C)/C=C/C=C/C=C/1C` [everolimus] the “symptom appeared on the skin” value [1] was “dry skin”, the “amounts of sweating after withdrawal of administration” value ([2]; normal skin and vitiligo skin, after withdrawal of oral administration) was “restored” and the “amount of sweating on the normal skin” value [2, 3] was “reduced”. The “amount of sweating on the skin showing the symptom of vitiligo” value [2, 3] was “reduced”.
